Measurements: US20140161748A1, “METHODS FOR TREATING SUN-EXPOSED SKIN” (UNIVERSITY OF MANITOBA, priority 2011, published 2014)

Legend:
proCOL1A1 = settings: 0.1 μM; UVB 20 mJ/cm^2; compared to UVB control cells
Method: (§1) Fibroblasts were exposed to varying intensities of UVB, 0, 20, 40 and 60 mJ/cm^2 and were examined 24, 48 or 72 hours after. […] MMP-1 or matrix metalloproteinase-1 is an enzyme that is involved in the breakdown of the extracellular matrix in normal physiological processes such as embryonic development, reproduction and tissue modeling. It is also responsible for breaking down collagen. proCOL1A1 is one component that makes up a molecule of type 1 collagen, which is found in most connective tissue, including the skin.

fibroblasts [1] = test system: fibroblasts
Method: as §1

fibroblasts [2] = test system: fibroblasts; remark: listed apart in the source
Method: Cultures were examined after 24, 48, and 72 hours after treatment with 0, 0.01, 0.1, 10, or 100 μM of Quetiapine.

SKH-1 mice [3] = settings: 10 mg/kg in drinking water; after 2 weeks of UV treatment; vs untreated mice
Method: (§2) Ten female SKH-1 mice were obtained from Jackson Laboratory. They were 9 weeks old at the start of the experiment.
(§3) Animals were ordered at 7 weeks of age and half were pretreated with quetiapine (10 mg/kg dissolved in drinking water) for two weeks prior to commencement of UV exposure. The other half were left untreated. Quetiapine was obtained in powder form (batch 1677) from Avlon Works, in Bristol, England, a production site for the pharmaceutical company AstraZeneca. All mice were exposed three times a week for a total of 10 weeks. Exposure intensity was 90 mJ/cm and exposure duration was 7.5 minutes. […] Excessive damage to the skin was not the goal of this study. The lamp used was manufactured by UVP (Upland, Calif., model UVLM-28).
(§4) Animals were free moving in a standard cage, with the light positioned about 30 cm above them. The intensity was measured and animals were not placed under the light until it had reached a stable value.

SKH-1 mice [4] = test system: SKH-1 mice
Method: as §2, §3, §4
Skin samples were taken from the dorsal region (along the midline of the mouse close to the hindlimbs) of each mouse using a 6 mm dermal biopsy punch.
Three histological stains were used. Each stain was prepared by the histology technician in the Department of Human Anatomy and Cell Science at the University of Manitoba. Hematoxylin and Eosin (H&E) was used to examine skin structure. Van Gieson stain was used to examine collagen structure, and Verhoeff-Van Gieson stain was used to examine both collagen and elastin fibres.
Skin samples from all animals were embedded in paraffin wax blocks using standard techniques and sectioned at a thickness of 5 microns.
Staining with Hematoxylin and Eosin.
Staining with Van Gieson.
Staining with Verhoeff-Van Gieson.

Fibroblast cells = settings: fibroblasts, doses 0, 0.01, 0.1 and 1 μM
Method: Fibroblast cells were plated at different densities, and exposed to UVC for various time (0 s, 10 s, 60 s and 360 s), then incubated for another 24 h, 48 h or 72 h (PIT). MTT assay was used to evaluate cell viability.

fibroblasts [5] = settings: UVB and Quetiapine for 48 hours
[6] = 10 mg/kg in drinking water, UV three times a week for 10 weeks

Compound: OCCOCCN1CCN(C2=Nc3ccccc3Sc3ccccc32)CC1 [Quetiapine, 2-(2-(4-dibenzo[b,f][1,4]thiazepine-11-yl-1-piperazinyl)ethoxy)ethanol]
- proCOL1A1 content in cell lysates (proCOL1A1): significantly increase
- alleviation of UVB induced cell viability (MTT assay) (fibroblasts [1]): not to alleviate UVB induced cell viability
- cytotoxic effect on fibroblasts (fibroblasts [2]; fibroblast cultures examined 24, 48 and 72 hours after treatment): cytotoxic effect on fibroblasts at high concentrations
- survival at 1, 10, and 100 μM (fibroblasts [2]; fibroblasts, 1, 10 and 100 μM): decreased further
- concentration at which survival started becoming affected (fibroblasts [2]; fibroblasts, 24, 48, 72 hours, 0-100 μM): 100 nM
- skin irritation (SKH-1 mice [3]): less irritation
- skin redness (SKH-1 mice [3]): less redness
- collagen appearance (Van Gieson) (SKH-1 mice [4]; [6]): darker staining and uniform, intact appearance of collagen bands
- elastic fibre number and structure (Verhoeff-Van Gieson) (SKH-1 mice [4]; [6]): better preservation of elastic fibre number and structure
- epidermis thickness (Hematoxylin and Eosin) (SKH-1 mice [4]; [6]): increased thickness in the untreated group compared to control and quetiapine treated animals
- UV induced collagen breakdown and formation of abnormal elastic fibres (summary) (SKH-1 mice [4]; chronically UV exposed mice): appears to prevent UV induced collagen breakdown and the formation of abnormal elastic fibres
- prevention of UVC induced cytotoxicity (Fibroblast cells): did not prevent UVC induced cytotoxicity regardless of the dose given
- effect on cell death (PI-Hoechst 33342 staining) (fibroblasts [5]): no effect on cell death
